Earlier results, collected in EP4781989A1, “POSACONAZOLE SOLID DISPERSION AND PREPARATION METHOD THEREFOR” (BEIJING DELIVERY PHARMACEUTICAL TECHNOLOGY CO., LTD, priority 2023, dated 2024).
Where two headings read alike, the source gives them in different places.

Compound: CC[C@@H]([C@H](C)O)n1ncn(-c2ccc(N3CCN(c4ccc(OC[C@@H]5CO[C@@](Cn6cncn6)(c6ccc(F)cc6F)C5)cc4)CC3)cc2)c1=O [Posaconazole]
- solubility (at about pH 6.4 or higher): less than 1 µg/mL
- solubility (gastric environment with about pH 1): about 0.8 mg/mL
